A short description of one series: Storage stability test. The format is physicochemical. As to the method:
(2-hydroxyethyl)trimethylammonium-4-(azulene-2-ylmethyl)-2-β-D-glucopyranosylphenolate (46 g) was put into a polyethylene bag, and the opening of the bag was closed with a bead band. The bag was put into another polyethylene bag containing silica gel (12 g). The opening of the bag was closed with a bead band. The bag was placed in a metal can, which was tightly sealed and stored in a dark place at 40° C. and 75% RH for six months. Apart from this, (2-hydroxyethyl)trimethylammonium-4-(azulene-2-ylmethyl)-2-β-D-glucopyranosylphenolate (10 g) was put into an open brown container and stored in a dark place at 40° C. and 75% RH for six months.

Series [1] in a line: Crystal form stability (DSC analysis / X-ray powder diffraction). In kind it is physicochemical. To be noted: behaviour on heating, drying or at room temperature. As to the method:
X-ray powder diffraction and differential scanning calorimeter analysis (DSC analysis) were conducted under the following conditions. “MAC Science […]22” equipped with a copper X-ray tube was used under the conditions of a current of 40 mA, a tube voltage of […], a sampling width of 0.020°, a scanning rate of 3°/min, wavelength of 1.54056 Å, and measurement angles of diffraction range of (2θ): 3 or 5 to 40°. “TA Instrument TA 5000” was used at a temperature from room temperature to 300° C. (10° C./min) and a N2 feed rate of 50 ml/min using an aluminum sampling pan.
A general note: DSC measures the heat that a sample takes up or gives off during a temperature scan.

In series [2] the target is T1, Human Na+-glucose cotransporter (human SGLT2) (Homo sapiens, UniProt P31639).
T1 construct: expressed in transfected cells; host or cells: CHO-K1
T1 sequence (P31639 1-672): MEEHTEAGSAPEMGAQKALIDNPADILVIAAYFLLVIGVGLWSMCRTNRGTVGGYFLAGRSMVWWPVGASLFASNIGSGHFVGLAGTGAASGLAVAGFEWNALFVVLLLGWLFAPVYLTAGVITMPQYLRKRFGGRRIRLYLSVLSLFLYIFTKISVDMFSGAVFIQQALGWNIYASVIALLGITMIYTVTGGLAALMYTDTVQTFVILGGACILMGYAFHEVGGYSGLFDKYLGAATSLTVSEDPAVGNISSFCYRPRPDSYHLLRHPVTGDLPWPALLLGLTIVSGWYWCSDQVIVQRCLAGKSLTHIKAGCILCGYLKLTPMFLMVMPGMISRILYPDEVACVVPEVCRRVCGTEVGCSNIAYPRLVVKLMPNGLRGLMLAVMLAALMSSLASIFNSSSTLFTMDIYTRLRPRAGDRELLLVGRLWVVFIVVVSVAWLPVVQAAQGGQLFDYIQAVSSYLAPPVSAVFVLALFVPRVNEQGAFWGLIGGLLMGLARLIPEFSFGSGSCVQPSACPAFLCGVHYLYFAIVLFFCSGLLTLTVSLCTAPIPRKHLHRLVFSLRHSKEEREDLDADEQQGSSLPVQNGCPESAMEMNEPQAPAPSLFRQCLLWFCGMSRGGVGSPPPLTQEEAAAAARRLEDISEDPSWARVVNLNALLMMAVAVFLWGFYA
Nature of the series: Inhibition of methyl-α-D-glucopyranoside intake in CHO cells stably expressing human SGLT2. In kind it is cell-based. Particulars: stated as equivalent to the value of Example 75 of Patent Document 1. The source says: [Test for Confirming Effect of Inhibiting Activity of Human Na^+-Glucose Cotransporter (Human SGLT2)]
First, single-stranded cDNA was reversely transcripted from total RNA originating from human kidney (manufactured by BD Biosciences Clontech) using a Superscript II (manufactured by Invitrogen Corporation) and a random hexamer. Second, using the cDNA as a template, a DNA fragment encoding human SGLT2 (Wells R. G. et al., Am. J. Physiol., 1992, 263 (3) F459) was amplified by a PCR reaction using Pyrobest DNA polymerase (manufactured by Takara Bio Inc.) (A primer where a Hind III site and an EcoRI site were inserted into the 5′ side and the 3′ side of the DNA fragment, respectively, was used).
The amplified fragment was cloned into a pCR2.1-Topo vector using a Topo TA Cloning Kit (manufactured by Invitrogen Corporation), and the cloned vector was transfected into a competent cell of Escherichia coli JM109. Ampicillin-resistant clones were cultured in a LB medium containing ampicillin (100 mg/l). A plasmid was purified from the cultured Escherichia coli using the method of Hanahan (see Maniatis et al., “Molecular Cloning”). […]

The mark [3] stands for this setting: 40° C., 75% RH, brown glass container, open, dark place, 2 months.
Where [4] appears, read: 40° C., 75% RH, brown glass container, open, dark place, 4 months.
The mark [5] stands for this setting: 40° C., 75% RH, brown glass container, open, dark place, 6 months.
[6] abbreviates: 40° C., 75% RH, silica gel/polyethylene bags (double) in a metal can, dark place, 2 months.
[7] abbreviates: 40° C., 75% RH, silica gel/polyethylene bags (double) in a metal can, dark place, 4 months.
Where [8] appears, read: 40° C., 75% RH, silica gel/polyethylene bags (double) in a metal can, dark place, 6 months.
The mark [9] stands for this setting: at the start of storing, 0 month.

SMILES strings stand for the structures. pIC50: −log10 of the molar value.

Consider `OC[C@H]1O[C@@H](c2cc(Cc3cc4cccccc-4c3)ccc2O)[C@H](O)[C@@H](O)[C@@H]1O` [Example 2, (2-hydroxyethyl)trimethylammonium 4-(azulen-2-ylmethyl)-2-β-D-glucopyranosylphenolate hydrate], for which, in the series “Storage stability test” (setting [3]), the “Analogous compounds (%) (HPCL) Maximum of each compound” value (shortened to “Analogous compounds (%) (HPCL) Maximum”) stood at 0.25%, the “Analogous compounds (%) (HPCL) Total amount” value worked out at 0.58%, the “Quantitative analysis (%) (HPCL)” value is 99.2% and the “Water content (%)” value is listed as 3.78%. Further, in the series “Storage stability test” (setting [4]), the “Analogous compounds (%) (HPCL) Maximum” value was determined as 0.24%, the “Analogous compounds (%) (HPCL) Total amount” value is on record as 0.57%, the “Quantitative analysis (%) (HPCL)” value turned out to be 99.9% and the “Water content (%)” value stood at 3.59%. Besides, in the series “Storage stability test” (setting [5]), the “Analogous compounds (%) (HPCL) Maximum” value is 0.24%, the “Analogous compounds (%) (HPCL) Total amount” value was determined as 0.43%, the “Quantitative analysis (%) (HPCL)” value is listed as 98.8% and the “Water content (%)” value came to 3.61%.
Consider `OC[C@H]1O[C@@H](c2cc(Cc3cc4cccccc-4c3)ccc2O)[C@H](O)[C@@H](O)[C@@H]1O` [Comparative Example 7, (1S)-1,5-anhydro-1-[5-(azulen-2-ylmethyl)-2-hydroxyphenyl]-D-glucitol anhydride crystal-1], for which the “Stability of the crystal form” value in series [1] is “stable only at high temperature and cannot be isolated at room temperature”.
Still for that read-out and setting: the value for `[Na+].[O-]c1ccc(Cc2cc3cccccc-3c2)cc1[C@@H]1O[C@H](CO)[C@@H](O)[C@H](O)[C@H]1O` [Comparative Example 1, sodium 4-(azulen-2-ylmethyl)-2-β-D-glucopyranosylphenolate] was “change form due to dissociation of volatile components at a low temperature”.
Regarding `OC[C@H]1O[C@@H](c2cc(Cc3cc4cccccc-4c3)ccc2O)[C@H](O)[C@@H](O)[C@@H]1O` [Example 1, (2-hydroxyethyl)trimethylammonium 4-(azulen-2-ylmethyl)-2-β-D-glucopyranosylphenolate], in the series “Storage stability test” (setting [6]), the “Analogous compounds (%) (HPCL) Maximum” value is given as 0.26%, the “Analogous compounds (%) (HPCL) Total amount” value is 0.66%, the “Quantitative analysis (%) (HPCL)” value is 99.5% and the “Water content (%)” value stood at 0.29%. In addition, in “Storage stability test” (setting [7]), the “Analogous compounds (%) (HPCL) Maximum” value turned out to be 0.26%, the “Analogous compounds (%) (HPCL) Total amount” value is recorded as 0.62%, the “Quantitative analysis (%) (HPCL)” value came to 99.0% and the “Water content (%)” value amounted to 0.22%. Further, in the series “Storage stability test” (setting [8]), the “Analogous compounds (%) (HPCL) Maximum” value is 0.27%, the “Analogous compounds (%) (HPCL) Total amount” value was 0.44%, the “Quantitative analysis (%) (HPCL)” value is recorded as 99.5% and the “Water content (%)” value was determined as 0.19%. The “Storage stability (conclusion from Table 3)” value in the series “Storage stability test” (40° C., 75% RH, six months) was “stable compounds”. In “Storage stability test” (setting [9]), the “Analogous compounds (%) (HPCL) Maximum” value came to 0.26%, the “Analogous compounds (%) (HPCL) Total amount” value is 0.61%, the “Quantitative analysis (%) (HPCL)” value worked out at 99.0% and the “Water content (%)” value was determined as 0.39%. In addition, the pIC50 in series [2] is around 8.05.
Regarding `[Li+].[O-]c1ccc(Cc2cc3cccccc-3c2)cc1[C@@H]1O[C@H](CO)[C@@H](O)[C@H](O)[C@H]1O` [Comparative Example 3, lithium 4-(azulen-2-ylmethyl)-2-β-D-glucopyranosylphenolate], in series [1], the “Stability of the crystal form” value is reported as “change form due to dissociation of volatile components at a low temperature”.
Consider `OC[C@H]1O[C@@H](c2cc(Cc3cc4cccccc-4c3)ccc2O)[C@H](O)[C@@H](O)[C@@H]1O` [Comparative Example 8, (1S)-1,5-anhydro-1-[5-(azulen-2-ylmethyl)-2-hydroxyphenyl]-D-glucitol anhydride crystal-2], for which, in series [1], the “Stability of the crystal form” value is “stable only at a high temperature and could not be isolated at room temperature”.
On the same count and under the same terms, the entry for `OC[C@H]1O[C@@H](c2cc(Cc3cc4cccccc-4c3)ccc2O)[C@H](O)[C@@H](O)[C@@H]1O` [Comparative Example 5, (1S)-1,5-anhydro-1-[5-(azulen-2-ylmethyl)-2-hydroxyphenyl]-D-glucitol hydrate crystal-1] is “transformed into anhydride crystal-3 of azulene compound A”.
Still for that read-out and setting: the value for `[K+].[O-]c1ccc(Cc2cc3cccccc-3c2)cc1[C@@H]1O[C@H](CO)[C@@H](O)[C@H](O)[C@H]1O` [Comparative Example 2, potassium 4-(azulen-2-ylmethyl)-2-β-D-glucopyranosylphenolate] was “change form due to dissociation of volatile components at a low temperature”.

Broadly, the pIC50 is the negative decadic logarithm of the IC50, by convention in mol/L.

The record behind these values is patent US20090182039A1, “Choline Salt Crystal of Azulene Compound” (priority 2005, published 2009).
